Test results reported in patent US20240409557A1, “5,6-FUSED AND 6,6-FUSED BICYCLIC ALCOHOLS AND ETHERS AND COMPOSITIONS FOR USE AS 15-PROSTAGLANDIN DEHYDROGENASE MODULATORS” (AMGEN INC., priority 2023, published 2024).

Columns and labels:
[1] = biological target: T1, human recombinant 15-PGDH (Homo sapiens, UniProt P15428); experiment: Recombinant 15-PGDH enzymatic inhibition assay (PGDH-Lumi, NADH signal); assay type: biochemical; settings: recombinant 15-PGDH; 15 min pre-incubation, 60 min reaction with PGE2 and NAD+, NADH signal
T1 sequence (P15428 1-266): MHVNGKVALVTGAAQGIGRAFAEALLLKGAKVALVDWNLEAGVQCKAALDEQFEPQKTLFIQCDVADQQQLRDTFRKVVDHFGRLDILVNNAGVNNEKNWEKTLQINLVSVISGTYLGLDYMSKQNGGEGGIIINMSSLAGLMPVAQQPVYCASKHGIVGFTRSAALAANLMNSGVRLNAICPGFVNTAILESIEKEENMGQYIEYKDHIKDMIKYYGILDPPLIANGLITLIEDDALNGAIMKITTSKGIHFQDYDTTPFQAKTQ
Outline: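 Buffer 50 mM Tris pH 7.5 with 0.01% Tween-20 and […]; compound, 22 two-fold dilutions, pre-incubated with enzyme 15 min before substrate.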

[2] = biological target: T2, 15-PGDH in A549 cells (Homo sapiens, UniProt P15428); experiment: A549 cellular 15-PGDH assay (PGE2 accumulation, HTRF); assay type: cell-based; settings: interleukin-stimulated, inhibitor 24 hrs, PGE2 by competitive HTRF, read-out: A549 Cell Assay IC50
T2 construct: endogenous in cells; host or cells: A549
T2 sequence (P15428 1-266): T1 sequence (P15428 1-266)
Outline: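 Supernatant PGE2 was quantified by competitive HTRF, in which sample PGE2 blocks FRET between a europium cryptate-labelled antibody and labelled PGE2. It came from A549 epithelial cells induced with IL-13. IC50s were calculated from the inversely proportional signal.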

Structure (SMILES) | IC50 [1] [nM] | IC50 [2] [nM]
CCn1cc2cc(-c3ccc4cc([C@H](O)C5CC(F)(F)C5)sc4n3)cnc2n1 (single isomer, unassigned) [Compound B53R] | 0.222 | 0.354
Cn1cc2cc(-c3ccc4cc([C@@H](O)C(F)(F)F)sc4n3)cnc2n1 (single isomer, unassigned) [Compound B23S] | 121 | 19.2
O[C@]1(c2cc3cnc(-c4cccnc4)nc3s2)C[C@H](C(F)(F)F)C1 [Compound C122C, cis-1-(2-(3-pyridinyl)thieno[2,3-d]pyrimidin-6-yl)-3-(trifluoromethyl)cyclobutanol] | 6.83 | 18.3
Cc1cn2ccc(-c3ccc4cc([C@H](O)C5CC(F)(F)C5)sc4n3)cc2n1 (single isomer, unassigned) [Compound B55R] | 0.308 | 0.657
Cn1cc2cc(-c3ccc4sc([C@@H](O)C5CC(F)(F)C5)nc4n3)cnc2n1 (single isomer, unassigned) [Compound B74S] | 24.1 | 4.48
CO[C@]1(C)C[C@@](O)(c2nc3ccc(-c4cnc5nn(C)cc5c4)nc3s2)C1 (single isomer, unassigned) [Compound C125C, cis-3-methoxy-3-methyl-1-(5-(2-methyl-2H-pyrazolo[3,4-b]pyridin-5-yl)[1,3]thiazolo[5,4-b]pyridin-2-yl)cyclobutanol] | 0.817 | 2.9
Cn1cc2cc(-c3ccc4cc([C@H](O)[C@H]5CC5(F)F)sc4n3)cnc2n1 (single isomer, unassigned) [Compound B85RR] | 0.47 | 0.704
CC(C)[C@@H](O)c1cc2ccc(-c3cnc4nn(C)cc4c3)nc2s1 (single isomer, unassigned) [Compound B24R] | 0.258 | 0.614
O[C@@H](c1cc2ccc(-c3ccc4[nH]ncc4c3)nc2s1)C1CCOCC1 (single isomer, unassigned) [Compound B37R] | 8.74 | 61.7
Cn1cc2cc(-c3ccc4cc([C@@H](O)C56CC(C(F)(F)F)(C5)C6)sc4n3)cnc2n1 (single isomer, unassigned) [Compound B91S] | 34.9 | 2.37
COC[C@H]1C[C@](O)(c2cc3ccc(-c4cnc5nn(C)cc5c4)nc3s2)C1 (single isomer, unassigned) [Compound C58C, cis-3-(methoxymethyl)-1-(6-(2-methyl-2H-pyrazolo[3,4-b]pyridin-5-yl)thieno[2,3-b]pyridin-2-yl)cyclobutanol] | 0.889 | 0.519
CO[C@H]1C[C@](O)(c2sc3nc(-c4cnc5nn(C)cc5c4)ccc3c2Cl)C1 [Compound C69C, cis-1-(3-chloro-6-(2-methyl-2H-pyrazolo[3,4-b]pyridin-5-yl)thieno[2,3-b]pyridin-2-yl)-3-methoxycyclobutanol] | 1.16 | 0.722
Cc1nc2cc(-c3ccc4cc([C@H](O)C5CC(F)(F)C5)sc4n3)ccc2o1 (single isomer, unassigned) [Compound B46R] | 0.277 | 0.697
CO[C@]1(C)C[C@](O)(c2nc3ccc(-c4cnc5nn(C)cc5c4)nc3s2)C1 (single isomer, unassigned) [Compound C125T, trans-3-methoxy-3-methyl-1-(5-(2-methyl-2H-pyrazolo[3,4-b]pyridin-5-yl)[1,3]thiazolo[5,4-b]pyridin-2-yl)cyclobutanol] | 0.75 | 5.42
Cn1cc2cc(-c3ncc4cc([C@]5(O)C[C@@](C)(C#N)C5)sc4n3)cnc2n1 (single isomer, unassigned) [Compound C96C, cis-3-hydroxy-1-methyl-3-(2-(2-methyl-2H-pyrazolo[3,4-b]pyridin-5-yl)thieno[2,3-d]pyrimidin-6-yl)cyclobutanecarbonitrile] | 0.755 | 2.33
Cn1cc2cc(-c3ccc4cc([C@H](CO)C5CC(F)(F)C5)sc4n3)cnc2n1 (single isomer, unassigned) [Compound B80S] | 1.16 | 0.339
[2H][C@@](O)(c1cc2ccc(-c3cnc4nn(C)cc4c3)nc2s1)C1CC(F)(F)C1 (single isomer, unassigned) [Compound B79S] | 0.706 | 0.37
Cn1nnc2cc(-c3ncc4cc([C@]5(O)C[C@@H](C(F)F)C5)sc4n3)cnc21 [Compound C85C, cis-3-(difluoromethyl)-1-(2-(3-methyl-3H-[1,2,3]triazolo[4,5-b]pyridin-6-yl)thieno[2,3-d]pyrimidin-6-yl)cyclobutanol] | 2.89 | 7.6
CO[C@@H]1CC[C@]1(O)c1cc2ccc(-c3cnc4nn(C)cc4c3)nc2s1 (single isomer, unassigned) [Compound C70RR] | 403 | 117
Cn1cc2cc(-c3cnc4cc([C@H](O)C5CC(F)(F)C5)sc4c3)cnc2n1 (single isomer, unassigned) [Compound B78R] | 17 | 2.49
Cn1nnc2cc(-c3ccc4cc([C@]5(O)C[C@@H](C(F)(F)F)C5)sc4n3)cnc21 [Compound C79C, cis-1-(6-(3-methyl-3H-[1,2,3]triazolo[4,5-b]pyridin-6-yl)thieno[2,3-b]pyridin-2-yl)-3-(trifluoromethyl)cyclobutanol] | 0.585 | 0.832
Cn1cc2cc(-c3ccc4cc([C@H](O)[C@@H]5CC5(F)F)sc4n3)cnc2n1 (single isomer, unassigned) [Compound B85RS] | 0.379 | 0.517
Cn1cc2cc(-c3ccc4cc([C@H](O)C5COC5)sc4n3)cnc2n1 (single isomer, unassigned) [Compound B28R] | 0.424 | 0.16
Cn1cc2cc(-c3ccc4cc([C@H](O)CCC(F)(F)F)sc4c3)cnc2n1 (single isomer, unassigned) [Compound B60R] | 1.17 | 3.38
CCC[C@@H](O)c1cc2ccc(-c3cnc4nn(C)cc4c3)nc2s1 (single isomer, unassigned) [Compound B27R] | 0.255 | 0.728
Cn1cc2cc(-c3ccc4cc([C@]5(O)C[C@@](C)(C#N)C5)sc4n3)cnc2n1 [Compound C63C, cis-3-hydroxy-1-methyl-3-(6-(2-methyl-2H-pyrazolo[3,4-b]pyridin-5-yl)thieno[2,3-b]pyridin-2-yl)cyclobutanecarbonitrile] | 0.429 | 0.115
Cn1cc2cc(-c3ccc4nc([C@]5(O)C[C@@H](C(F)(F)F)C5)sc4n3)cnc2n1 [Compound C74C, cis-1-(5-(2-methyl-2H-pyrazolo[3,4-b]pyridin-5-yl)[1,3]thiazolo[5,4-b]pyridin-2-yl)-3-(trifluoromethyl)cyclobutanol] | 0.458 | 0.192

Results, then the compound that gave them:

IC50 [1] [nM] | IC50 [2] [nM] | Structure (SMILES)
34.7 | 11.1 | OC1(c2cc3ccc(-c4ccc5oncc5c4)nc3s2)CC(F)(F)C1 [Compound C50, 1-(6-(1,2-benzoxazol-5-yl)thieno[2,3-b]pyridin-2-yl)-3,3-difluorocyclobutanol]
0.379 | 0.0582 | Cn1cc2cc(-c3ccc4cc(C5(O)CC6(CC(F)(F)C6)C5)sc4n3)cnc2n1 [Compound C27, 6,6-difluoro-2-(6-(2-methyl-2H-pyrazolo[3,4-b]pyridin-5-yl)thieno[2,3-b]pyridin-2-yl)spiro[3.3]heptan-2-ol]
1.24 | 2.15 | OC1(c2cc3ccc(-c4cnc5[nH]cnc5c4)nc3s2)CC(F)(F)C1 [Compound C41, 3,3-difluoro-1-(6-(3H-imidazo[4,5-b]pyridin-6-yl)thieno[2,3-b]pyridin-2-yl)cyclobutanol]
7.12 | 31.9 | CC(O)c1cc2c(C3CC3)cc(-c3cnc4nn(C)cc4c3)nc2s1 (stereo not drawn) [Compound B11, 1-(4-cyclopropyl-6-(2-methyl-2H-pyrazolo[3,4-b]pyridin-5-yl)thieno[2,3-b]pyridin-2-yl)ethanol]
0.543 | 4.77 | Cn1cc2cc(-c3cc(-c4ccnn4C)c4cc(C(C)(O)C5CCC5)sc4n3)cnc2n1 (stereo not drawn) [Compound C23, 1-cyclobutyl-1-(6-(2-methyl-2H-pyrazolo[3,4-b]pyridin-5-yl)-4-(1-methyl-1H-pyrazol-5-yl)thieno[2,3-b]pyridin-2-yl)ethanol]
0.42 | 0.553 | Cn1cc2cc(-c3ccc4cc(C(O)C5CCC(F)(F)CC5)sc4n3)cnc2n1 (stereo not drawn) [Compound B31, (4,4-difluorocyclohexyl)(6-(2-methyl-2H-pyrazolo[3,4-b]pyridin-5-yl)thieno[2,3-b]pyridin-2-yl)methanol]
2.19 | 1.1 | Cn1nnc2cc(-c3ccc4cc(C5(O)CC(F)(F)C5)sc4n3)cnc21 [Compound C51, 3,3-difluoro-1-(6-(3-methyl-3H-[1,2,3]triazolo[4,5-b]pyridin-6-yl)thieno[2,3-b]pyridin-2-yl)cyclobutanol]
0.821 | 1.59 | OC1(c2cc3ccc(-c4cnc5[nH]nnc5c4)nc3s2)CC(F)(F)C1 [Compound C55]
0.901 | 4.19 | CCC(O)c1cc2c(C3CC3)cc(-c3cnc4nn(C)cc4c3)nc2s1 (stereo not drawn) [Compound B13, 1-(4-cyclopropyl-6-(2-methyl-2H-pyrazolo[3,4-b]pyridin-5-yl)thieno[2,3-b]pyridin-2-yl)-1-propanol]
